Assay results published in patent US20130196980A1, “[…], […] AND THERAPEUTIC AGENT FOR FIBROMYALGIA” (AXIS INC., priority 2010, published 2013).

Test system: anti-VGKC complex antibody positive patient with fibromyalgia
Test: Pain-relieving experiment by an anticonvulsant agent (patient pain VAS)
Format: in vivo, human
Details: patient B; clonazepam 1.5 mg orally; non-depression type fibromyalgia, anti-VGKC complex antibody more than 100 pM
Source text: Pain-relieving experiments by an anticonvulsant agent for each anti-VGKC complex antibody positive patient with fibromyalgia
It is considered that the pain can be relieved by an anticonvulsant agent for an anti-VGKC complex antibody positive patient with fibromyalgia. Thus, for 3 patients (to whom a level of anti-VGKC complex antibody of more than 100 pM was detected) among 4 anti-VGKC complex antibody positive patients with fibromyalgia in Example 1, a pain-relieving experiment by an anticonvulsant agent for an anti-VGKC complex antibody positive patient with fibromyalgia was conducted. These patients were patients with fibromyalgia of non-depression type.
To patient A, gabapentine 900 mg and clonazepam 0.5 mg were orally administered. As a result, the value of patient pain VAS was reduced to 40 based on 100 before administration.
To patient B, clonazepam 1.5 mg was orally administered. As a result, the value of patient pain VAS was reduced to 30 based on 100 before administration.
To patient C, gabapentine 1600 mg and clonazepam 1.0 mg were orally administered. As a result, the value of patient pain VAS was reduced to 20 based on 100 before administration.

With `O=C1CN=C(c2ccccc2Cl)c2cc([N+](=O)[O-])ccc2N1` [clonazepam] the “value of patient pain VAS after administration, based on 100 before administration” value was 30.
